Data set [1] in a line: Apparent partition coefficient, logPapp of the compound in pH 7.4 phosphate buffer incubated for 30 mins by HPLC analysis. It is filed as physicochemical.
Data set [2] is described as follows: Half-life of the compound in 80% human serum by HPLC analysis. It is filed as ADME, cell-free. The following applies: 80% serum.
Data set [3] can be described thus: Half-life of the compound in pH 7.4 phosphate buffer by HPLC analysis. It is filed as physicochemical.
The nature of data set [4]: Half-life of the compound in pH 2.0 phosphate buffer by HPLC analysis. It is filed as physicochemical.
Data set [5] is described as follows: Half-life of the compound in 10% rabbit liver homogenate by HPLC analysis. It is filed as ADME, tissue-based, Oryctolagus cuniculus. To be noted: 10% liver homogenate.
Data set [6] is described as follows: 1-Octanol/phosphate buffer apparent partition coefficient, logPapp of the compound at pH 7.4 by shake-flask method. It is filed as physicochemical.
Data set [7] can be described thus: Half-life of the compound in pH 5.0 phosphate buffer by HPLC analysis. It is filed as physicochemical.
A short description of data set [8]: Octanol-water partition coefficient, logP of the compound by shake-flask method. It is filed as physicochemical.
The nature of data set [9]: Apparent partition coefficient, logPapp of the compound by HPLC analysis. It is filed as physicochemical. The following applies: octanol/water.
Data set [10] is described as follows: Half-life of the compound in human serum by HPLC analysis. It is filed as ADME, cell-free.
Data set [11] can be described thus: 1-Octanol/phosphate buffer apparent partition coefficient, logPapp of the compound by shake-flask method. It is filed as physicochemical.
Data set [12] in a line: Half-life of the compound in human CEM/0 cell extract at pH 6.9. It is filed as ADME, CCRF-CEM.
Data set [13] can be described thus: Half-life of the compound in pH 7.3 PBS buffer. It is filed as physicochemical.
The nature of data set [14]: Half life of the compound in pH 7.0 TEAA buffer. It is filed as physicochemical.
A short description of data set [15]: Half life of the compound in RPMI medium. It is filed as physicochemical.
Data set [16] concerns Human immunodeficiency virus 2. Put plainly: Potency index, ratio of d4T EC50 to test compound EC50 for antiviral activity against HIV2 infected in human CEM-TK(-) cells assessed as inhibition of viral replication incubated for 4 to 5 days by microscopic analysis. To be noted: time 4-5 day. It is filed as functional.
For data set [17], the system named is Human immunodeficiency virus 2. Put plainly: Antiviral activity against HIV2 infected in human CEM-TK(-) cells assessed as inhibition of viral replication incubated for 4 to 5 days by microscopic analysis. It is filed as functional, organism-based. To be noted: Human immunodeficiency virus 2, CEM-TK(-).
Data set [18] in a line: Time for quantitative release of etidronate in 10% rabbit liver homogenate. The following applies: 10% liver homogenate.

Molecules are shown by their SMILES. A value given as a limit tells only on which side of the number the result lay.

Regarding `CC(C)(C)C(=O)OP(=O)(O)C(Cl)(Cl)P(=O)(O)OC(=O)C(C)(C)C`, the pH-dependent lipophilicity (logD) at 0.5 h in data set [1] is -2.3. The same molecule showed a half-life in data set [2] of 3.3 h.

For `CC(=O)OP(=O)(O)C(Cl)(Cl)P(=O)(O)OC(C)=O`, in [1], the logD at 0.5 h was -2.3. In addition, the half-life in data set [3] was 15.2 h; in [4] it was 0.75 h.

For `O=C(OP(=O)(O)C(Cl)(Cl)P(=O)(O)OC(=O)c1ccccc1)c1ccccc1`, the pH-dependent lipophilicity (logD) at 0.5 h in data set [1] is -2.3.

On to `CCCC(=O)OP(=O)(O)C(Cl)(Cl)P(=O)(O)OC(=O)CCC`, for which the logD at 0.5 h in data set [1] was -2.3. In addition, the half-life in data set [3] is 15.2 h; in data set [4] it was 0.75 h.

`CC(C)(C)C(=O)OCOP(=O)(O)C(Cl)(Cl)P(=O)(O)OCOC(=O)C(C)(C)C` registered a half-life in data set [5] of 0.233 h. Further, in [6], the log distribution coefficient (logD) was -2.1.

For the molecule `CC(C)(C)C(=O)OCOP(=O)(OCOC(=O)C(C)(C)C)C(Cl)(Cl)P(=O)(OCOC(=O)C(C)(C)C)OCOC(=O)C(C)(C)C`, the log distribution coefficient (logD) in data set [6] worked out at 7.4.

Turning to `CC(C)(C)C(=O)OCOP(=O)(O)C(Cl)(Cl)P(=O)(OCOC(=O)C(C)(C)C)OCOC(=O)C(C)(C)C`, the half-life in data set [5] is 0.0183 h; in [7], above 1 h; in [3], above 1 h. Further, the pH-dependent lipophilicity (logD) in [6] was determined as 1.6.

The molecule `COc1ccc(OP(=O)(O)C(O)(c2cccc(Br)c2)P(=O)(O)Oc2ccc(OC)cc2)cc1` (stereo not drawn) returned a logP in data set [8] of -0.31.

As to `CC(=O)OC(C)(P(=O)(OCOC(=O)C(C)(C)C)OCOC(=O)C(C)(C)C)P(=O)(OCOC(=O)C(C)(C)C)OCOC(=O)C(C)(C)C`, the log distribution coefficient (logD) in data set [9] came out at 7.4.

For `CC(=O)OC(C)(P(=O)(O)OCOC(=O)C(C)(C)C)P(=O)(OCOC(=O)C(C)(C)C)OCOC(=O)C(C)(C)C` (stereo not drawn), the half-life was 0.045 h in data set [5], 252 h in data set [7], 163 h in data set [3] and 4.8 h in [10]. The logD in data set [11] turned out to be 0.6.

As to `CC(=O)Oc1ccc(COP(=O)(OCc2ccc(OC(C)=O)cc2)OP(=O)(O)OC[C@H]2O[C@@H](n3cc(C)c(=O)[nH]c3=O)C[C@@H]2N=[N+]=[N-])cc1`, the values for the half-life in [12] and in [13] were 2 min and 17 h, respectively.

With `CCCCCCCCCCCCCC(=O)OP(=O)(O)OP(=O)(O)OC[C@H]1O[C@@H](n2cc(C)c(=O)[nH]c2=O)C[C@@H]1N=[N+]=[N-]`, the half-life in [14] is 114 h; in data set [15], 1.7 h.

Turning to `Cc1cn([C@H]2C=C[C@@H](COP(=O)(O)OP(=O)(OCc3ccc(OC(=O)c4ccccc4)cc3)OCc3ccc(OC(=O)c4ccccc4)cc3)O2)c(=O)[nH]c1=O`, the “Ratio EC50” value in [16] stood at 82. In addition, the EC50 in data set [17] was found to be 850 nM.

Turning to `CCCCCCCC(=O)Oc1ccc(COP(=O)(OCc2ccc(OC(=O)CCCCCCC)cc2)OP(=O)(O)OC[C@@H]2C=C[C@H](n3cc(C)c(=O)[nH]c3=O)O2)cc1`, the “Ratio EC50” value in data set [16] stood at 27. For the same molecule, the concentration for a half-maximal effect (EC50) in data set [17] was 2600 nM.

In the case of `CC(O)(P(=O)(O)O)P(=O)(O)O` [ETIDRONIC ACID], the time to quantitative release in data set [18] came out at 3300 min.

Consider `Cc1cn([C@H]2C=C[C@@H](CO)O2)c(=O)[nH]c1=O` [STAVUDINE], for which the EC50 in [17] worked out at 70000 nM.

Broadly, the logD is the decadic logarithm of the distribution of all forms, ionised or not, between an organic phase and buffer at a given pH. As a reminder, the half-life is the time in which the quantity being followed falls by half. Usually logP stands for a log measure of how a compound divides between an organic and an aqueous phase. Read a low logP as lower lipophilicity. One may read the EC50 as the midpoint of the concentration-response curve.

These data come from ChEMBL document CHEMBL5223098, “Prodrugs of pyrophosphates and bisphosphonates: disguising phosphorus oxyanions” (RSC Med Chem, 2022).
